Tests used:
BXPC-3 = assay: Cell viability assay (CCK-8); assay type: cell-based; conditions: ADCs; CCK-8, 96 hours; cell RMCA [sic], Pancreas; read-out: IC50 (95% Cl)
Method: (§1) Cell viability was determined using Cell Counting Kit 8 (CCK-8). Cells were seeded into 96-well plates at 3000-10000 cells/well. After incubation overnight, drugs were added at different concentrations. Plates were incubated in a 5% CO2, 37° C. humidified chamber for 96 hours. CCK8 reagent was added thereto and the plates were placed back to the incubator until the absorbance at 450 nm of untreated control cells was greater than 1.0. Growth inhibition was measured as the percent growth relative to untreated cells. Dose response curve was generated from the mean values of two or three tests, and IC50 values were calculated using Prism GraphPad software.
(§2) The anti-tumor efficacy of different payloads on different tumor cell lines was detected by CCK-8, and the results are shown in FIG. 5.

CFPAC-1 = assay: Cell viability assay (CCK-8); assay type: cell-based; conditions: ADCs; CCK-8, 96 hours; cell CPAC-1 [sic], Pancreas; read-out: IC50 (95% Cl)
Method: as §1, §2

COLO205 = assay: Cell viability assay (CCK-8); assay type: cell-based; conditions: ADCs; CCK-8, 96 hours; cell printed 'COXC28', Colon; read-out: IC50 (95% Cl)
Method: as §1, §2

Capan-1 = assay: Cell viability assay (CCK-8); assay type: cell-based; conditions: ADCs; CCK-8, 96 hours; Cxoo-1 [sic], Pancreas; read-out: IC50 (95% Cl)
Method: as §1, §2

HCC1806 = assay: Cell viability assay (CCK-8); assay type: cell-based; conditions: ADCs; CCK-8, 96 hours; 'HOC1906' [sic], Mamary; read-out: IC50 (95% Cl)
Method: as §1, §2

HT29 = assay: Cell viability assay (CCK-8); assay type: cell-based; conditions: ADCs; CCK-8, 96 hours; cell '3128' [sic], Colon; read-out: IC50 (95% Cl)
Method: as §1, §2

MDA-MB-231 = assay: Cell viability assay (CCK-8); assay type: cell-based; conditions: ADCs; CCK-8, 96 hours; cell 'SRM-K9-231' [sic], Mamary; read-out: IC50 (95% Cl)
Method: as §1, §2

MDA-MB-468 = assay: Cell viability assay (CCK-8); assay type: cell-based; conditions: ADCs; CCK-8, 96 hours; SRM-M9-409, Mammary; read-out: IC50 (95% Cl)
Method: as §1, §2

NCI-H1688 = assay: Cell viability assay (CCK-8); assay type: cell-based; conditions: ADCs; CCK-8, 96 hours; cell 'HCl-11685' [sic], Lung; read-out: IC50 (95% Cl)
Method: as §1, §2

NCIH2452 = assay: Cell viability assay (CCK-8); assay type: cell-based; conditions: ADCs; CCK-8, 96 hours; cell 'HOC2401' [sic], Lung; read-out: IC50 (95% Cl)
Method: as §1, §2

SCLC-21H = assay: Cell viability assay (CCK-8); assay type: cell-based; conditions: ADCs; CCK-8, 96 hours; SRM-C-21H; read-out: IC50 (95% Cl)
Method: as §1, §2

SK-MES-1 = assay: Cell viability assay (CCK-8); assay type: cell-based; conditions: ADCs; CCK-8, 96 hours; cell 'SK-WSS-7' [sic], Lung; read-out: IC50 (95% Cl)
Method: as §1, §2

SKBR3 = assay: Cell viability assay (CCK-8); assay type: cell-based; conditions: ADCs; CCK-8, 96 hours; 'SKERS' [sic], Mammary; read-out: IC50 (95% Cl)
Method: as §1, §2

[1] = tested on: mixture of Trop-2-positive tumor cells BXPC-3 and Trop-2-negative tumor cells NCIH1688; assay: Bystander effect: transplanted tumor from mixture of BXPC-3 and NCIH1688 cells; assay type: in vivo, BALB/c-nu/nu mice; conditions: 10 mg/kg, transplanted tumors heterogeneously expressing Trop-2
From the text: (§3) Five-week-old female athymic BALB/c nu/nu mice were purchased from Charles River Company (Shanghai, China), and mice were randomly divided into 5-6 mice/group. Animal handling and procedures were approved and performed in accordance with the requirements of the Institutional Animal Care and Use Committee (IACUC) of Shanghai Institute of Materia Medica, Chinese Academy of Sciences. All models were inoculated subcutaneously on the side of mice. BXPC-3, HCC1806 and NCIH1688 cells were established by injecting and homogenizing 5 × 10^6 cells in Matrigel matrix. COLO205 cells were established by injecting and suspending 1 × 10^7 cells in Matrigel matrix. After the tumor volume reached about 200 mm^3, the tumor-bearing mice were randomly divided into treatment groups and a control group according to the tumor volume. Each drug was administered intraperitoneally. […] The percentage of inhibition was calculated by the following formula: (1-average tumor volume of the treatment group/average tumor volume of the control group)×100%. Toxicity of the different treatment groups was assessed by monitoring weight loss.
(§4) A mixture of Trop-2-positive tumor cells BXPC-3 and Trop-2-negative tumor cells NCIH1688 or NCIH1688 cells alone were inoculated into BALB/c-nu/nu mice (FIG. 1e, right panel), and the “bystander effect” of hRS7-VK-PTX was detected in a mouse transplanted tumor model.

NCIH1688 cells = assay: Transplanted tumor from NCIH1688 cells alone (not expressing Trop-2); assay type: in vivo, BALB/c-nu/nu mice; conditions: hRS7-VK-PTX 10 mg/kg, hRS7-VK-MMAE 3 mg/kg
From the text: as §3, §4

[2] = Dose tolerability, single intravenous dose acute toxicity; assay type: in vivo; conditions: BALB/c mice
Method: Dose tolerability assay was performed in BALB/c mice (3 mice per dose). The drug was given in a single intravenous dose. The injection doses of hRS7-VK-PTX were 60, 80 and 100 mg/kg, and the injection doses of hRS7-VK-MMAE were 60 and 80 mg/kg, respectively. Toxicity was assessed by observing mouse behavior, weight loss and survival. The weight change rate (%) was calculated as: (body weight - body weight before treatment)/(body weight before treatment) × 100%.
The safety of relatively high doses of hRS7-VK-PTX in BALB/c mice was studied by an acute toxicity experiment with single intravenous administration in mice.

Substance: hRS7-VK-PTX
- IC50 (BXPC-3): 0.633 nM
- IC50 (CFPAC-1): 16.8 nM
- IC50 (COLO205): 4.52 nM
- IC50 (Capan-1): 2.98 nM
- IC50 (HCC1806): 0.266 nM
- IC50 (HT29): 3.47 nM
- IC50 (MDA-MB-231): 1.59 nM
- IC50 (MDA-MB-468): 2.68 nM
- IC50 (NCI-H1688): 32.4 nM
- IC50 (NCIH2452): 1.4 nM
- IC50 (SCLC-21H): 2.96 nM
- IC50 (SK-MES-1): 10.1 nM
- IC50 (SKBR3): 1.74 nM
- tumor growth inhibition index (TGI) [1]: 99.5%
- killing effect on transplanted tumors not expressing Trop-2 (NCIH1688 cells): had no such effect
- toxicity or weight loss compared with placebo ([2]; single 100 mg/kg intravenous dose): no significant toxicity or weight loss
- maximum tolerated dose (MTD) ([2]; single intravenous dose, highest dose 100 mg/kg): not reached

— patent publication US20230346969A1, “INTERMEDIATE FOR PREPARING ANTIBODY-DRUG CONJUGATE (ADC), PREPARATION METHOD THEREFOR, AND USE THEREOF” (priority 2020, published 2023)
